Source: patent US20170143712A1, “Methods of Treating Cancers, Immune and Autoimmune Diseases, and Inflammatory Diseases Based on BTK Occupancy and BTK Resynthesis Rate” (Acerta Pharma B.V., priority 2014, published 2017)

Key:
Type in all cases: in vivo
[1] = Plasma pharmacokinetics in CLL patients; settings: human, oral administration
Description: In this indication, the rapid resynthesis of BTK in the tumor cells in the CLL cell compartment is observed as a steeper rate of decline in the percentage of BTK sites occupied by Formula (II), compared with what has been observed in normal peripheral blood cells of healthy volunteers (compare linear slope estimates of FIG. 25 with FIG. 34).

[2] = Rat pharmacokinetics, oral gavage vs dietary administration in chow
Procedure: To evaluate the effects of continuous low dose administration versus oral gavage administration of Formula (II), six male rats per group were treated with oral gavage administration of vehicle or Formula (II) at a dose of 30 mg/kg/day for 14 days. Six male rats per group were treated with dietary Formula (II) in chow at concentrations of 100 and 500 ppm; a control group (no vehicle, no chow) was also included in the study. All animals were evaluated for pharmacokinetics on Day 14, during the night cycle to accommodate the dietary groups. The spleens were collected at necroscopy and splenocytes were harvested and cryopreserved for BTK target occupancy analysis. The presence of inactivated BTK in normal splenocytes was measured using a BTK active-site specific probe in an ELISA assay. Plasma concentrations of Formula (II) were measured using liquid chromatography/mass spectroscopy; pharmacokinetic parameters were estimated using WinNonlin (Pharsight, Cetara).

BTK = BTK (Homo sapiens, UniProt Q06187); experiment: BTK target occupancy in CD5+/CD19+ tumor cells of relapsed/refractory CLL patients
Procedure: Peripheral blood samples were obtained over time and BTK target occupancy was evaluated using a BTK active-site specific probe in an ELISA assay.

Chain of BTK (Q06187 whole entry): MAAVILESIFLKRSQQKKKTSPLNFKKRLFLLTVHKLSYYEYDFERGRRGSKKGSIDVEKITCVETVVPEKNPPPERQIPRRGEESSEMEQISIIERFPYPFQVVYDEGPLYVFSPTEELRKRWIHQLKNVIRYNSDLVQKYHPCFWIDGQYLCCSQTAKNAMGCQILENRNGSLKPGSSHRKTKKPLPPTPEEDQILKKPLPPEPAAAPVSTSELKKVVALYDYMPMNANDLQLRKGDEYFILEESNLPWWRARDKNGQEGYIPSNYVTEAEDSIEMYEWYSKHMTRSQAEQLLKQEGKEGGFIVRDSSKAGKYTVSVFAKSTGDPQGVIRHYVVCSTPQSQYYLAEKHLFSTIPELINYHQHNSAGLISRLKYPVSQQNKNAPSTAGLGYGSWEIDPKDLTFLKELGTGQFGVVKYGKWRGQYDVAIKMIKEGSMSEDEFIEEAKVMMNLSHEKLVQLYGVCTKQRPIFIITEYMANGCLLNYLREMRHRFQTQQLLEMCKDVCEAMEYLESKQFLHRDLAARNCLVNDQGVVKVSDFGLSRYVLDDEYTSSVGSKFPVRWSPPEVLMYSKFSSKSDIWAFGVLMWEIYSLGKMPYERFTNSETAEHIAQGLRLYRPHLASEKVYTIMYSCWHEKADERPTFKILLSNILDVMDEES

With `CC#CC(=O)N1CCC[C@H]1c1nc(-c2ccc(C(=O)Nc3ccccn3)cc2)c2c(N)nccn12` [Formula (II), (S)-4-(8-amino-3-(1-(but-2-ynoyl)pyrrolidin-2-yl)imidazo[1,5-a]pyrazin-1-yl)-N-(pyridin-2-yl)benzamide] the Tmax [1] was ~1 h, the “Cmax as fraction of the AUC0-18 value” ([2]; dietary 100 and 500 ppm in chow, Day 14) was 1/10 and the Cmax ([2]; rat, plasma, oral gavage 30 mg/kg/day, Day 14, male rats) was 506 ng/mL. For the same compound, the AUC(0-t) ([2]; rat, plasma, oral gavage 30 mg/kg/day, Day 14, male rats, read-out: AUC0-12) was 864 ng·h/mL, the “percentage BTK occupancy” value (BTK; 100 mg BID compared with any QD dosing schedule) was “higher percentage BTK occupancy” and the “resynthesis of BTK in CLL tumor cells” value (BTK; 100 mg QD compared with 100 mg BID) was “more rapid than after 100 mg BID dosing”. The “BTK occupancy in peripheral blood compartment” value (BTK; 3-4 hours post dose, all treated subjects) was “full BTK occupancy” and the “BTK target occupancy in circulating tumor cells throughout the dosing interval” value (BTK; total daily doses above 200 mg, once-daily or twice-daily) was > 90%.
